Data from patent US10196657B2, “Methods of producing 7-carbon chemicals via methyl-ester shielded carbon chain elongation” (INVISTA North America S.á r.l., priority 2012, dated 2019).

Legend:
Format in all cases: biochemical
[1] = ω-transaminase activity assay, reverse direction (7-aminoheptanoate to pimelate semialdehyde); conditions: cell free extract, 10 mM 7-aminoheptanoate, 10 mM pyruvate, 25° C., 4 h; against empty vector control; FIG. 15
Experimental: (§1) A sequence encoding an N-terminal His-tag was added to the genes from Chromobacterium violaceum, Pseudomonas syringae, Rhodobacter sphaeroides, and Vibrio Fluvialis encoding the ω-transaminases of SEQ ID NOs: 8, 10, 11 and 13, respectively (see FIGS. 7F and 7G) such that N-terminal HIS tagged ω-transaminases could be produced. Each of the resulting modified genes was cloned into a pET21a expression vector under control of the T7 promoter and each expression vector was transformed into a BL21[DE3] E. coli host. The resulting recombinant E. coli strains were cultivated at 37° C. in a 250 mL shake flask culture containing 50 mL LB media and antibiotic selection pressure, with shaking at 230 rpm. Each culture was induced overnight at 16° C. using 1 mM IPTG.
(§2) The pellet from each induced shake flask culture was harvested via centrifugation. Each pellet was resuspended and lysed via sonication. The cell debris was separated from the supernatant via centrifugation and the cell free extract was used immediately in enzyme activity assays.
Enzyme activity assays in the reverse direction (i.e., 7-aminoheptanoate to pimelate semialdehyde) were performed in a buffer composed of a final concentration of 50 mM HEPES buffer (pH=7.5), 10 mM 7-aminoheptanoate, 10 mM pyruvate and 100 μM pyridoxyl 5′ phosphate. […] The formation of L-alanine from pyruvate was quantified via RP-HPLC.

[2] = ω-transaminase activity assay, 7-aminoheptanol to 7-oxoheptanol
Experimental: A nucleotide sequence encoding an N-terminal His-tag was added to the Chromobacterium violaceum, Pseudomonas syringae and Rhodobacter sphaeroides genes encoding the ω-transaminases of SEQ ID NOs: 8, 10 and 11, respectively (see FIGS. 7F and 7G) such that N-terminal HIS tagged ω-transaminases could be produced. The modified genes were cloned into a pET21a expression vector under the T7 promoter. Each expression vector was transformed into a BL21[DE3] E. coli host. Each resulting recombinant E. coli strain were cultivated at 37° C. in a 250 mL shake flask culture containing 50 mL LB media and antibiotic selection pressure, with shaking at 230 rpm. Each culture was induced overnight at 16° C. using 1 mM IPTG.
as §2
Enzyme activity assays in the reverse direction (i.e., 7-aminoheptanol to 7-oxoheptanol) were performed in a buffer composed of a final concentration of 50 mM HEPES buffer (pH=7.5), 10 mM 7-aminoheptanol, 10 mM pyruvate, and 100 μM pyridoxyl 5′ phosphate. […] The formation of L-alanine was quantified via RP-HPLC.

[3] = ω-transaminase activity assay, forward direction (pimelate semialdehyde to 7-aminoheptanoate)
Experimental: as §1, §2
Enzyme activity in the forward direction (i.e., pimelate semialdehyde to 7-aminoheptanoate) was confirmed for the transaminases of SEQ ID NO 10, SEQ ID NO 11 and SEQ ID NO 13. […] The formation of pyruvate was quantified via RP-HPLC.

For “SEQ ID NO 11: Rhodobacter sphaeroides ω-transaminase, Genbank Accession No. ABA81135.1”, the “acceptance of 7-aminoheptanoate as substrate (formation of L-alanine from pyruvate, RP-HPLC)” value [1] was “accepted 7-aminoheptanote as substrate”, the “acceptance of 7-aminoheptanol as substrate (formation of L-alanine, RP-HPLC)” value ([2]; cell free extract, 10 mM 7-aminoheptanol, 10 mM pyruvate, 25° C., 4 h, against empty vector control, FIG. 19) was “accepted 7-aminoheptanol as substrate” and the “acceptance of 7-oxoheptanol as substrate, forming 7-aminoheptanol (concluded from reversibility)” value ([2]; concluded from reversibility of the ω-transaminase activity (Example 2)) was “accept 7-oxoheptanol as substrate”. For the same substance, the “acceptance of pimelate semialdehyde as substrate (formation of pyruvate from L-alanine, RP-HPLC)” value ([3]; cell free extract, 10 mM pimelate semialdehyde, 10 mM L-alanine, 25° C., 4 h, against empty vector control, FIG. 16) was “accepted pimelate semialdehyde as substrate” and the “acceptance of pimelate semialdehyde as substrate, synthesizing 7-aminoheptanoate (conclusion from confirmed reversibility)” value ([3]; concluded from reversibility of the ω-transaminase activity) was “accepted pimelate semialdehyde as substrate”.
